Measurements taken from ChEMBL document CHEMBL4507257, “Data for DCP probe ABT-100” (2021).

Experiments:
[1] = system: Tyrosine-protein kinase ABL1 (Homo sapiens), P00519 [M351T]; settings: Compound concentration 1000.0 nM
[2] = target: Mitogen-activated protein kinase kinase kinase 6 (Homo sapiens) (UniProt O95382); settings: Compound concentration 1000.0 nM
[3] = target: Bone morphogenetic protein receptor type-1A (Homo sapiens) (UniProt P36894); settings: Compound concentration 1000.0 nM
[4] = target: Serine/threonine-protein kinase BRSK1 (Homo sapiens) (UniProt Q8TDC3); settings: Compound concentration 1000.0 nM
[5] = target: Macrophage colony-stimulating factor 1 receptor (Homo sapiens) (UniProt P07333); settings: Compound concentration 1000.0 nM
[6] = target: Megakaryocyte-associated tyrosine-protein kinase (Homo sapiens) (UniProt P42679); settings: Compound concentration 1000.0 nM
[7] = target: Dual specificity tyrosine-phosphorylation-regulated kinase 1A (Homo sapiens) (UniProt Q13627); settings: Compound concentration 1000.0 nM
[8] = target: Ephrin type-A receptor 7 (Homo sapiens) (UniProt Q15375); settings: Compound concentration 1000.0 nM
[9] = target: Ephrin type-B receptor 2 (Homo sapiens) (UniProt P29323); settings: Compound concentration 1000.0 nM
[10] = target: Receptor tyrosine-protein kinase erbB-2 (Homo sapiens) (UniProt P04626); settings: Compound concentration 1000.0 nM
[11] = target: Receptor-type tyrosine-protein kinase FLT3 (Homo sapiens) (UniProt P36888); settings: Compound concentration 1000.0 nM
[12] = target: Tyrosine-protein kinase Fyn (Homo sapiens) (UniProt P06241); settings: Compound concentration 1000.0 nM
[13] = target: Mitogen-activated protein kinase kinase kinase kinase 1 (Homo sapiens) (UniProt Q92918); settings: Compound concentration 1000.0 nM
[14] = target: Mitogen-activated protein kinase 8 (Homo sapiens) (UniProt P45983); settings: Compound concentration 1000.0 nM
[15] = target: Mast/stem cell growth factor receptor Kit (Homo sapiens) (UniProt P10721); settings: Compound concentration 1000.0 nM
[16] = target: Mitogen-activated protein kinase kinase kinase 15 (Homo sapiens) (UniProt Q6ZN16); settings: Compound concentration 1000.0 nM
[17] = target: MAP kinase-activated protein kinase 2 (Homo sapiens) (UniProt P49137); settings: Compound concentration 1000.0 nM
[18] = target: MAP kinase-activated protein kinase 5 (Homo sapiens) (UniProt Q8IW41); settings: Compound concentration 1000.0 nM
[19] = target: Dual specificity mitogen-activated protein kinase kinase 2 (Homo sapiens) (UniProt P36507); settings: Compound concentration 1000.0 nM
[20] = target: Dual specificity mitogen-activated protein kinase kinase 4 (Homo sapiens) (UniProt P45985); settings: Compound concentration 1000.0 nM
[21] = target: Serine/threonine-protein kinase MRCK beta (Homo sapiens) (UniProt Q9Y5S2); settings: Compound concentration 1000.0 nM
[22] = target: Serine/threonine-protein kinase mTOR (Homo sapiens) (UniProt P42345); settings: Compound concentration 1000.0 nM
[23] = target: Serine/threonine-protein kinase Nek5 (Homo sapiens) (UniProt Q6P3R8); settings: Compound concentration 1000.0 nM
[24] = target: Mitogen-activated protein kinase 12 (Homo sapiens) (UniProt P53778); settings: Compound concentration 1000.0 nM
[25] = target: Serine/threonine-protein kinase PAK 2 (Homo sapiens) (UniProt Q13177); settings: Compound concentration 1000.0 nM
[26] = target: Phosphatidylinositol 5-phosphate 4-kinase type-2 gamma (Homo sapiens) (UniProt Q8TBX8); settings: Compound concentration 1000.0 nM
[27] = target: Serine/threonine-protein kinase PLK4 (Homo sapiens) (UniProt O00444); settings: Compound concentration 1000.0 nM
[28] = target: cGMP-dependent protein kinase 2 (Homo sapiens) (UniProt Q13237); settings: Compound concentration 1000.0 nM
[29] = target: Serine/threonine-protein kinase RIO3 (Homo sapiens) (UniProt O14730); settings: Compound concentration 1000.0 nM
[30] = target: Ribosomal protein S6 kinase alpha-4 (Homo sapiens) (UniProt O75676); settings: Compound concentration 1000.0 nM
[31] = target: Ribosomal protein S6 kinase alpha-2 (Homo sapiens) (UniProt Q15349); settings: Compound concentration 1000.0 nM
[32] = target: Serine/threonine-protein kinase Sgk3 (Homo sapiens) (UniProt Q96BR1); settings: Compound concentration 1000.0 nM
[33] = target: Non-receptor tyrosine-protein kinase TNK1 (Homo sapiens) (UniProt Q13470); settings: Compound concentration 1000.0 nM
[34] = target: Phosphatidylinositol 3-kinase catalytic subunit type 3 (Homo sapiens) (UniProt Q8NEB9); settings: Compound concentration 1000.0 nM
[35] = target: T1, 5-hydroxytryptamine receptor 3A (Homo sapiens) (UniProt P46098); settings: Compound concentration 10.0 uM
T1 sequence (whole entry): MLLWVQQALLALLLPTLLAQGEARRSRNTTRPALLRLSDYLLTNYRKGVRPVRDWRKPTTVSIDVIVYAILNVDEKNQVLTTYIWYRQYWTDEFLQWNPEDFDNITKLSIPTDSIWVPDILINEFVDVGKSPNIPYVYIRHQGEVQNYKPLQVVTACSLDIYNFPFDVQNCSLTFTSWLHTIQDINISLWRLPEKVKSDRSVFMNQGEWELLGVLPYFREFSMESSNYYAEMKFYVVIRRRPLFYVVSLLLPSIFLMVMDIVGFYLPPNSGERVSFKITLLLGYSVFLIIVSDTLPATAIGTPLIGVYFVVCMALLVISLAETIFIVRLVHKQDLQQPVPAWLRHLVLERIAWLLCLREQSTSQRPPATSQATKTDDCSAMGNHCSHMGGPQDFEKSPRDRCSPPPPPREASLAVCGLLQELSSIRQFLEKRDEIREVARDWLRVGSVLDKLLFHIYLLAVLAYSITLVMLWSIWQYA

[36] = target: D(3) dopamine receptor (Homo sapiens) (UniProt P35462); settings: Compound concentration 10.0 uM
[37] = target: Sodium-dependent noradrenaline transporter (Homo sapiens) (UniProt P23975); settings: Compound concentration 10.0 uM
[38] = target: Alpha-2C adrenergic receptor (Homo sapiens) (UniProt P18825); settings: Compound concentration 10.0 uM

Chain of Mitogen-activated protein kinase kinase kinase 15 (Homo sapiens) (Q6ZN16 whole entry): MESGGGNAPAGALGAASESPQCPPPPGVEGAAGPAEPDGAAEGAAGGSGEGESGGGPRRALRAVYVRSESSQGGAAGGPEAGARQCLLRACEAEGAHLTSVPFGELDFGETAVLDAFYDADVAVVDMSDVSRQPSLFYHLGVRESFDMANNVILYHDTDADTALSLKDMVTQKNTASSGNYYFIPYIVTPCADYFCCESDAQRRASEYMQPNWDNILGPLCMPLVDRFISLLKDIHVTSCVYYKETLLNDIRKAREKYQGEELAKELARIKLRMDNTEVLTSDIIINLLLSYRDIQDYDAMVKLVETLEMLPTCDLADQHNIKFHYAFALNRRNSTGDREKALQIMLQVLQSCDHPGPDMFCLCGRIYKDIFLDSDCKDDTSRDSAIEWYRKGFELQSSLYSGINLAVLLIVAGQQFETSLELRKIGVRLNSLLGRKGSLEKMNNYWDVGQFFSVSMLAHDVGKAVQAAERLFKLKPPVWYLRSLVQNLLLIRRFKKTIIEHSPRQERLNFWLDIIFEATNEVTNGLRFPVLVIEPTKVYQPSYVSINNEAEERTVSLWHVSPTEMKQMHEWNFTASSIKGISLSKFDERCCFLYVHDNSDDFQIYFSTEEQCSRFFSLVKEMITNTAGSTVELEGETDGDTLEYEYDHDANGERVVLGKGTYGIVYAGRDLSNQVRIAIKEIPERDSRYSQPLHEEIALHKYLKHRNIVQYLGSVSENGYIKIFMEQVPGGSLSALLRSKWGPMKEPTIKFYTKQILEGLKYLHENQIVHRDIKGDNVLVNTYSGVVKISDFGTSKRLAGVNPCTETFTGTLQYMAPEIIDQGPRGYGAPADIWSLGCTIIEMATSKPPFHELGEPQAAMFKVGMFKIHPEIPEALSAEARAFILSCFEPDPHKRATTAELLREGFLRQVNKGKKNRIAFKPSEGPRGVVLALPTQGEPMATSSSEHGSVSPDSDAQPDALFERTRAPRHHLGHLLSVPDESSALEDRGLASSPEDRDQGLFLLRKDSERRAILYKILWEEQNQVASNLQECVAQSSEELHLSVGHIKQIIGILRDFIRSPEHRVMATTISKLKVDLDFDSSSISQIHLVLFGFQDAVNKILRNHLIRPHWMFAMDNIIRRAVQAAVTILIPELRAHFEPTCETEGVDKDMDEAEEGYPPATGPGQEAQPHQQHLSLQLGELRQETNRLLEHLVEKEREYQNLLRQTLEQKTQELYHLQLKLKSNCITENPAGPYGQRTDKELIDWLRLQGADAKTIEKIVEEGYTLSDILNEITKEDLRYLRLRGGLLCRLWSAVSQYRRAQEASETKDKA
Chain of Tyrosine-protein kinase Fyn (Homo sapiens) (P06241 2-537 limits assumed): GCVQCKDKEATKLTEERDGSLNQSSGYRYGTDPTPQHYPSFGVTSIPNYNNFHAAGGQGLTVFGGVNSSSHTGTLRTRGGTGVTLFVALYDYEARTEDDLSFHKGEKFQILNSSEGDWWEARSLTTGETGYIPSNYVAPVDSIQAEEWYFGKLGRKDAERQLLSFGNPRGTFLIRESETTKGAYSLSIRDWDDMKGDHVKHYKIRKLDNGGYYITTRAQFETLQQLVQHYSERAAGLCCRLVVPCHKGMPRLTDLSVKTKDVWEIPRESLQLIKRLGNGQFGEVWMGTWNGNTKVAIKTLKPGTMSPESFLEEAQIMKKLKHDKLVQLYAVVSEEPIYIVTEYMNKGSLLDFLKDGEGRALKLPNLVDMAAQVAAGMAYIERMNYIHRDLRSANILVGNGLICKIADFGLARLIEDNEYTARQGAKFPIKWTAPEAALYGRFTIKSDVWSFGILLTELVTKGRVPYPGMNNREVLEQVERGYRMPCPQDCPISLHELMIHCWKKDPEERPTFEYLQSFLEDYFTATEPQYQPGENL
Chain of Phosphatidylinositol 3-kinase catalytic subunit type 3 (Homo sapiens) (Q8NEB9 whole entry): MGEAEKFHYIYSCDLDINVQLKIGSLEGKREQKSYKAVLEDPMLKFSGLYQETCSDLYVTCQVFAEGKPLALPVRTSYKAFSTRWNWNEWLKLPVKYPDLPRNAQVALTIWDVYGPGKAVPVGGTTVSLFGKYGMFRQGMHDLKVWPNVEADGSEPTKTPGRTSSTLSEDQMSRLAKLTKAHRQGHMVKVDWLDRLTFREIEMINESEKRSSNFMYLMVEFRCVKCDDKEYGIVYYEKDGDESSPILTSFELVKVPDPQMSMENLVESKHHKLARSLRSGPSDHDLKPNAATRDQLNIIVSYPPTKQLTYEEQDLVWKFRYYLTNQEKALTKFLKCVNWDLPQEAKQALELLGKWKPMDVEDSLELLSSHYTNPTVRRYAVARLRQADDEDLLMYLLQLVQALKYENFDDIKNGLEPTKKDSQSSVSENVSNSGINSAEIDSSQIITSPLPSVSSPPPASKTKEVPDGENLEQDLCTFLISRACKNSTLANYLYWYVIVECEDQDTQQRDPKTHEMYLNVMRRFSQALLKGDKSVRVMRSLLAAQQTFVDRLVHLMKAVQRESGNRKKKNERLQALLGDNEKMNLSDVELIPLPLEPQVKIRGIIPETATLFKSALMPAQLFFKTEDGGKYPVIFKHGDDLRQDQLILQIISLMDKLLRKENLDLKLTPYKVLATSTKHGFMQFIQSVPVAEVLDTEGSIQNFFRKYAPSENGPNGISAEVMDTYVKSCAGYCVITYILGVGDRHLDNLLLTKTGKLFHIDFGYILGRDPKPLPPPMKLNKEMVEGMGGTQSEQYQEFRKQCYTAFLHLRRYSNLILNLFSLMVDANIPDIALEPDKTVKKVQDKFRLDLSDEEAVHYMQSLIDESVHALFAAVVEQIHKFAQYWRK
Chain of Mitogen-activated protein kinase kinase kinase kinase 1 (Homo sapiens) (Q92918 whole entry, looked up): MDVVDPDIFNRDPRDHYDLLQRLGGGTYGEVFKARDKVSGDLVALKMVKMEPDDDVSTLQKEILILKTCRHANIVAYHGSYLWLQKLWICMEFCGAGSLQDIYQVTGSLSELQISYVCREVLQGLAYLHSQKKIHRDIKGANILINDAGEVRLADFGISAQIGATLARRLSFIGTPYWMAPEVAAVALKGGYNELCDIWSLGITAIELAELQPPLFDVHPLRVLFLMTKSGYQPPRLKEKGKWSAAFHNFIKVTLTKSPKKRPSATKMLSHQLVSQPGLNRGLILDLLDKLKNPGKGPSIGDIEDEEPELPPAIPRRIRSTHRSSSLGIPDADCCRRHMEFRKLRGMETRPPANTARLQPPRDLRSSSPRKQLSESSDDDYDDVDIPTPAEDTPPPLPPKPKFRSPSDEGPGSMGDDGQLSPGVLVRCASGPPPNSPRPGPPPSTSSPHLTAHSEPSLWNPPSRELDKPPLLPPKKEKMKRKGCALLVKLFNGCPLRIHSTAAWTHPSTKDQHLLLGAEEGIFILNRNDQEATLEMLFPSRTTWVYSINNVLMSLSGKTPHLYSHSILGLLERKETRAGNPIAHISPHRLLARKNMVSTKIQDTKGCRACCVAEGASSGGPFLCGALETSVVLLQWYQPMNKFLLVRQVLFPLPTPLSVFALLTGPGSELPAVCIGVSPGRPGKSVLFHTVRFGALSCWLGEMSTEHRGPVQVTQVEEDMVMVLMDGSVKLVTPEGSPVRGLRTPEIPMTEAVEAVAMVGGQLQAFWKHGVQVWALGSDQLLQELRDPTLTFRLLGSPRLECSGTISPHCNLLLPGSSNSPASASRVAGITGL
Chain of Dual specificity mitogen-activated protein kinase kinase 2 (Homo sapiens) (P36507 whole entry): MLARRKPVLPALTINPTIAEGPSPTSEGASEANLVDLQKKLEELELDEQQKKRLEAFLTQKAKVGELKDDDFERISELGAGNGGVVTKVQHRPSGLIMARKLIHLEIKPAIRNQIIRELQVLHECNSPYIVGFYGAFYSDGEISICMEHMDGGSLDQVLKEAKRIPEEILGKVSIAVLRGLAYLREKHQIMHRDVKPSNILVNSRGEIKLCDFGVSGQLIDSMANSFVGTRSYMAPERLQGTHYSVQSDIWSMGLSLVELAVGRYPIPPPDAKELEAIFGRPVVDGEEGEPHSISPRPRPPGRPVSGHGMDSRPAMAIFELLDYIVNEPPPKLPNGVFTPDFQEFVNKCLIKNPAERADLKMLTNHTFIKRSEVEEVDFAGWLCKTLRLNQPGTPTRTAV
Chain of Ephrin type-A receptor 7 (Homo sapiens) (Q15375 28-998 limits assumed): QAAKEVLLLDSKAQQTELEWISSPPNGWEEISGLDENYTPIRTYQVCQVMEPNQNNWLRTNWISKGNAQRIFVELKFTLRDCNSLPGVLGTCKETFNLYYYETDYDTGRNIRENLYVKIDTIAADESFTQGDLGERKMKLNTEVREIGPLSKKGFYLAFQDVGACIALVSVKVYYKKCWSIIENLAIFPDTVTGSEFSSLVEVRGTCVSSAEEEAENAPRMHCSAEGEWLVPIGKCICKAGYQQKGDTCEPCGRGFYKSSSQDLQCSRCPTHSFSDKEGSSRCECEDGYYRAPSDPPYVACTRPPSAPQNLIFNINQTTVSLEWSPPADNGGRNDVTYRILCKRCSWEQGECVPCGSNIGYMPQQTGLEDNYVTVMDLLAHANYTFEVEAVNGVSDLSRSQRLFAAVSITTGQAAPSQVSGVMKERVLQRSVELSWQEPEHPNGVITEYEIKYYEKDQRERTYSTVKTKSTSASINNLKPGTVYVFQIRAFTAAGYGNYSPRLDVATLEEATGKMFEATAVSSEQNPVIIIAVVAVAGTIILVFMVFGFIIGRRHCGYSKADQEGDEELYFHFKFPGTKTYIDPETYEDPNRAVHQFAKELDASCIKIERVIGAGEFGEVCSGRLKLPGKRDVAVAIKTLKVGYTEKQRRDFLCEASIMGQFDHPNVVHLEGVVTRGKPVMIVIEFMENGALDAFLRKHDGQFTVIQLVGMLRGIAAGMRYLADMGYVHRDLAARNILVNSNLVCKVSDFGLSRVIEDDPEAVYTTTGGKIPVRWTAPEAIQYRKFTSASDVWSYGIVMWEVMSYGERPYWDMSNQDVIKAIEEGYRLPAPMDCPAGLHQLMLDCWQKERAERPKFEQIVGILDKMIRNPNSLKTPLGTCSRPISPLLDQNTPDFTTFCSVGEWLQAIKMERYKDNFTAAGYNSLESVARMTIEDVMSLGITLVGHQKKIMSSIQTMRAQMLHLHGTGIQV

Cn1cncc1[C@@](O)(COc1ccc(C#N)cc1-c1ccc(OC(F)(F)F)cc1)c1ccc(C#N)cc1 [A-108]
residual activity [1]: 6.2% | residual activity [2]: 100% | residual activity [3]: 100% | residual activity [4]: 86% | residual activity [5]: 85% | residual activity [6]: 100% | residual activity [7]: 99% | residual activity [8]: 100% | residual activity [9]: 100% | residual activity [10]: 94% | residual activity [11]: 100% | residual activity [12]: 97% | residual activity [13]: 100% | residual activity [14]: 77% | residual activity [15]: 98% | residual activity [16]: 83% | residual activity [17]: 61% | residual activity [18]: 100% | residual activity [19]: 74% | residual activity [20]: 100% | residual activity [21]: 95% | residual activity [22]: 100% | residual activity [23]: 98% | residual activity [24]: 100% | residual activity [25]: 96% | residual activity [26]: 96% | residual activity [27]: 84% | residual activity [28]: 87% | residual activity [29]: 90% | residual activity [30]: 93% | residual activity [31]: 100% | residual activity [32]: 100% | residual activity [33]: 88% | residual activity [34]: 100% | inhibition [35]: -0.62% | inhibition [36]: 18.1% | inhibition [37]: 5.18% | inhibition [38]: 8.51%

Cn1cncc1[C@](O)(COc1ccc(C#N)cc1-c1ccc(OC(F)(F)F)cc1)c1ccc(C#N)cc1 [ABT-100]
residual activity [1]: 100% | residual activity [2]: 76% | residual activity [3]: 91% | residual activity [4]: 73% | residual activity [5]: 94% | residual activity [6]: 98% | residual activity [7]: 81% | residual activity [8]: 91% | residual activity [9]: 94% | residual activity [10]: 100% | residual activity [11]: 87% | residual activity [12]: 100% | residual activity [13]: 100% | residual activity [14]: 100% | residual activity [15]: 100% | residual activity [16]: 90% | residual activity [17]: 63% | residual activity [18]: 90% | residual activity [19]: 94% | residual activity [20]: 89% | residual activity [21]: 76% | residual activity [22]: 57% | residual activity [23]: 72% | residual activity [24]: 100% | residual activity [25]: 93% | residual activity [26]: 87% | residual activity [27]: 94% | residual activity [28]: 100% | residual activity [29]: 95% | residual activity [30]: 89% | residual activity [31]: 89% | residual activity [32]: 100% | residual activity [33]: 56% | residual activity [34]: 91% | inhibition [35]: 17.6% | inhibition [36]: -9.46% | inhibition [37]: 21.7% | inhibition [38]: 5%
